The subject of one experiment is Aspergillus flavus. The experiment in a line: Antifungal paper disk test, diameter of clear zone. The experiment is classed as cell-based. The note with it: for zone of inhibition at 100 µg/disc: read-out: Diameter (mm) of clear Zone A. flavus; for zone of inhibition at 0.25 µg/disc: 0.25 μg/disk. The protocol:
(§1) Sulfur compounds were tested for antifungal activity against pure cultures of Aspergillus niger and Aspergillus flavus supplied by Ward's Natural Science Ltd (St. Catharines, Ontario, Canada). They were maintained on Sabouraud Dextrose Agar.
(§2) For the test, 6 agar plugs (5 mm diameter) were cut from a 5-8 day old colony and homogenized in distilled, sterilized water (2 ml). A portion of this suspension (0.5 ml) was transferred aseptically to a Petri plate with Sabouraud Dextrose Agar (15 ml) and spread evenly over the entire surface. […] Each test compound was applied to the disks as a solution (50 mg compound/10 ml acetone). Control disks were treated with neat acetone (20 μl). Test plates with fungal homogenates and disks were incubated at 18-20° C. for 2 days. For each test four replicate plates were used. The diameter of the clear zone surrounding the disk was taken as the indicator of antifungal activity.

For another experiment, the system named is Aspergillus niger. Nature of the experiment: Antifungal paper disk test, diameter of clear zone. It is filed as cell-based. The note with it: for zone of inhibition at 100 µg/disc: read-out: Diameter (mm) of clear Zone A. niger; for zone of inhibition at 0.25 µg/disc: 0.25 μg/disk. The protocol:
as §1, §2

The mark [1] stands for this setting: Aspergillus flavus, 25 μg/disk, acetone.
Setting [2] is: Aspergillus niger, 25 μg/disk, acetone.
Where [3] appears, read: Aspergillus flavus, 100 μg/disk, acetone.
Setting [4] is: Aspergillus niger, 100 μg/disk, acetone.

Consider 18 molecules from patent US20030220524A1, “Sulfur containing compounds” (priority 2000, published 2003).

In the case of `Cc1ccc(S(=O)(=O)Sc2ccccc2)cc1` [p-CH3(C6H4)SO2S(C6H5)], the “Diameter (mm) of clear Zone A. flavus” value in the experiment on Aspergillus flavus (25 μg/disk, acetone) was 3.3 mm. Further, in the experiment with Aspergillus niger (25 μg/disk, acetone), the “Diameter (mm) of clear Zone A. niger” value came to 4.3 mm.

For the molecule `CS(=O)(=O)c1ccccc1SSc1ccccc1S(C)(=O)=O` [[o-CH3SO2(C6H4)S]2, o-methylsulfonylphenyl disulphide], the values for the zone of inhibition at 25 µg/disc in the experiment with Aspergillus flavus (setting [1]) and with Aspergillus niger (setting [2]) were 3 mm and 3.3 mm, respectively.

For “o-Carbomethoxyphenyl Methanethiosulfonate [o-CH3SO2S(C6H4)CO2CH3]”, in the experiment on Aspergillus flavus (100 μg/disk, acetone), the “Diameter (mm) of clear Zone A. flavus” value is given as 0 mm. Also, in the experiment on Aspergillus niger (100 μg/disk, acetone), the “Diameter (mm) of clear Zone A. niger” value was 0 mm.

As to `O=S(=O)(Sc1ccccc1)c1ccccc1` [(C6H5)SO2S(C6H5)], the “Diameter (mm) of clear Zone A. flavus” value with Aspergillus flavus (25 μg/disk, acetone) is reported as 3.8 mm. Also, the “Diameter (mm) of clear Zone A. niger” value in the experiment with Aspergillus niger (25 μg/disk, acetone) was found to be 3.9 mm.

With `Cc1ccc(S(=O)(=O)CS)cc1` [p-CH3(C6H4)SO2CH2SH, α-p-toluenesulfonyl methyl mercaptan], the “Diameter (mm) of clear Zone A. flavus” value with Aspergillus flavus (100 μg/disk, acetone) came to 0 mm. Further, the “Diameter (mm) of clear Zone A. niger” value in the experiment with Aspergillus niger (100 μg/disk, acetone) is on record as 0 mm.

`CSSCS(C)(=O)=O` [CH3SO2CH2SSCH3, α-methylsulfonyl dimethyl disulphide]: the “Diameter (mm) of clear Zone A. flavus” value in the experiment on Aspergillus flavus (25 μg/disk, acetone) is reported as 3.8 mm. Besides, the “Diameter (mm) of clear Zone A. niger” value in the experiment with Aspergillus niger (25 μg/disk, acetone) was found to be 2.7 mm.

As to `CSSCCOC(C)=O` [CH3SSCH2CH2OC(O)CH3, 3,4-dithiapentyl acetate], the zone of inhibition at 100 µg/disc in the experiment with Aspergillus flavus (setting [3]) and in the experiment with Aspergillus niger (setting [4]) was 0 mm in each case.

As to `CS(=O)(=O)Sc1ccc([N+](=O)[O-])cc1` [p-CH3SO2S(C6H4)NO2, p-Nitrophenyl Methanethiosulfonate], in the experiment on Aspergillus flavus (25 μg/disk, acetone), the “Diameter (mm) of clear Zone A. flavus” value turned out to be 1.2 mm. The “Diameter (mm) of clear Zone A. niger” value in the experiment on Aspergillus niger (25 μg/disk, acetone) is reported as 1.9 mm.

For the molecule `Cc1ccc(S(=O)(=O)Sc2ccc([N+](=O)[O-])cc2)cc1` [p-CH3(C6H4)SO2S(C6H4)NO2—p, p-Nitrophenyl p-Toluenethiosulfonate], the “Diameter (mm) of clear Zone A. flavus” value in the experiment with Aspergillus flavus (25 μg/disk, acetone) was determined as 2.0 mm. Further, the “Diameter (mm) of clear Zone A. niger” value in the experiment with Aspergillus niger (25 μg/disk, acetone) amounted to 3.0 mm.

`CCC(=O)OCSSCC(=O)OC` [CH3OC(O)CH2SSCH2OC(O)C2H5, methyl 3,4-dithia-5-propionoxypentanoate]: the zone of inhibition at 0.25 µg/disc in the experiment with Aspergillus flavus (Aspergillus flavus, Appl'n Solvent Acetone) worked out at 2.3 mm; with Aspergillus flavus (Aspergillus flavus, Appl'n Solvent DMSO), 7.9 mm; with Aspergillus niger (Aspergillus niger, Appl'n Solvent Acetone), 3 mm; in the experiment with Aspergillus niger (Aspergillus niger, Appl'n Solvent DMSO) it was 11.7 mm.

Regarding `CSSCS(=O)(=O)c1ccccc1` [C6H5SO2CH2SSCH3, α-phenylsulfonyl dimethyl disulphide], the “Diameter (mm) of clear Zone A. flavus” value in the experiment with Aspergillus flavus (25 μg/disk, acetone) was 4.2 mm. The “Diameter (mm) of clear Zone A. niger” value in the experiment on Aspergillus niger (25 μg/disk, acetone) is 5.5 mm.

`COC(=O)CSS(=O)(=O)c1ccc(C)cc1` [p-CH3(C6H4)SO2SCH2CO2CH3, Carbomethoxymethyl p-Toluenethiosulfonate]: the “Diameter (mm) of clear Zone A. flavus” value in the experiment with Aspergillus flavus (50 μg/disk, acetone) worked out at 1.7 mm. Further, the “Diameter (mm) of clear Zone A. niger” value in the experiment on Aspergillus niger (50 μg/disk, acetone) came to 2.9 mm.

As to `CS(=O)(=O)c1ccc(SSc2ccc(S(C)(=O)=O)cc2)cc1` [[p-CH3SO2(C6H4)S]2, p-methylsulfonylphenyl disulphide], the results for the zone of inhibition at 25 µg/disc in the experiment with Aspergillus flavus (setting [1]) and in the experiment on Aspergillus niger (setting [2]) were 6.9 mm and 4 mm, respectively.

Regarding `CCC(=O)OCSSC` [CH3CH2C(O)OCH2SSCH3, 2,3-dithiabutyl propionate], the zone of inhibition at 25 µg/disc was 7.6 mm with Aspergillus flavus (setting [1]) and 14.8 mm in the experiment on Aspergillus niger (setting [2]).

Regarding `CSS(=O)(=O)c1ccc(C)cc1` [p-CH3(C6H4)SO2SCH3], the “Diameter (mm) of clear Zone A. flavus” value in the experiment on Aspergillus flavus (25 μg/disk, acetone) amounted to 3.6 mm. Further, the “Diameter (mm) of clear Zone A. niger” value in the experiment on Aspergillus niger (25 μg/disk, acetone) worked out at 1.4 mm.

`CSSc1cccc([N+](=O)[O-])c1` [m-O2N(C6H4)SSCH3, methyl m-nitrophenyl disulphide]: the zone of inhibition at 10 µg/disc in the experiment with Aspergillus flavus (Aspergillus flavus, 10 μg/disk, acetone) came to 1.8 mm; with Aspergillus niger (Aspergillus niger, 10 μg/disk, acetone), 1.7 mm.

With `COC(=O)c1ccccc1SSC` [o-CH3OC(O)(C6H4)SSCH3, methyl-o(methyldithio)benzoate], the “Diameter (mm) of clear Zone A. flavus” value in the experiment with Aspergillus flavus (25 μg/disk, acetone) turned out to be 4.3 mm. Also, in the experiment with Aspergillus niger (25 μg/disk, acetone), the “Diameter (mm) of clear Zone A. niger” value stood at 2.8 mm.

Turning to `CSCS(C)(=O)=O` [CH3SO2CH2SCH3, 2,4-dithiapentane 2,2-dioxide], the zone of inhibition at 100 µg/disc in the experiment with Aspergillus flavus (setting [3]) and in the experiment with Aspergillus niger (setting [4]) was 0 mm each time.
